{
  "source": "paper PMC3654564",
  "about": "(ACS Medicinal Chemistry Letters, 2013)",
  "key": {"hCOX-2": {"molecular_target": "T1, hCOX-2 (Homo sapiens, UniProt P35354)", "T1 sequence (P35354 18-604)": "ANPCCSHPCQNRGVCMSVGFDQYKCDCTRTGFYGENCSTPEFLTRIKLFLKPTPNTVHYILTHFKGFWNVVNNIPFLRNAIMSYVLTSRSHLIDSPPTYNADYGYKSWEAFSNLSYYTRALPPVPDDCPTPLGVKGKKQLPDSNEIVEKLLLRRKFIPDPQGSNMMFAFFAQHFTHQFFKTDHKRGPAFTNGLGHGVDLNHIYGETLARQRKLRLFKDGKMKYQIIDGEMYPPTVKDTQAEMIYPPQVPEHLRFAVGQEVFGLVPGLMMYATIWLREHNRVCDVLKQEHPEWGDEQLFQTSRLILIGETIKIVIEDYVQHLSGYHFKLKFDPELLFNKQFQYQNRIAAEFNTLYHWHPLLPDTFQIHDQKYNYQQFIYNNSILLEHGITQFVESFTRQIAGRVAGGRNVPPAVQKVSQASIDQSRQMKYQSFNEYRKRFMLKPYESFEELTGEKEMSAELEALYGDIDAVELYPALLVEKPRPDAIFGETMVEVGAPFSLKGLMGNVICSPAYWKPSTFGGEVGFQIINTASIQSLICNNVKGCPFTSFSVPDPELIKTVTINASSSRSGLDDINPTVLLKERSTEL", "assay": "Time-dependent COX inhibition assay", "assay_type": "biochemical"}, "mR120A (mCOX-2 mutant)": {"molecular_target": "T2, mR120A (mCOX-2 mutant) (Mus musculus, UniProt Q05769, R106A)", "T2 sequence (Q05769 18-604 R106A)": "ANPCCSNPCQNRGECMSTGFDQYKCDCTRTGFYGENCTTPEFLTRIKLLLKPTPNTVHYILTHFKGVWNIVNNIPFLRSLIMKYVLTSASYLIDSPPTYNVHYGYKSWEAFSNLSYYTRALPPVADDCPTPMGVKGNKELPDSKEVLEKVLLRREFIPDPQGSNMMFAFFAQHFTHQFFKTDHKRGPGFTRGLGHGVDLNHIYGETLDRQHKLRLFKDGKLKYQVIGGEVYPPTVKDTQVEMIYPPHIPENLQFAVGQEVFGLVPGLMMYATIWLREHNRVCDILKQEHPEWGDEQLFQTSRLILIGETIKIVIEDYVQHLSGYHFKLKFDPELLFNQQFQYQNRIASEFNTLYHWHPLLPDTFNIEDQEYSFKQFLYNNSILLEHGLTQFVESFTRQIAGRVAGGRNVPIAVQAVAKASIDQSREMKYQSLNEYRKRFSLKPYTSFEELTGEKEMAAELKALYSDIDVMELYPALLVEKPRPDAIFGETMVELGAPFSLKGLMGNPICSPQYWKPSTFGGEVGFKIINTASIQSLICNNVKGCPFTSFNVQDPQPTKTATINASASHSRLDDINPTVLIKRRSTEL", "assay": "COX inhibition screening assay, mCOX-2 R120A mutant", "assay_type": "biochemical", "conditions": "inhibitor concentrations of up to 100 μM"}, "oCOX-1": {"molecular_target": "T3, oCOX-1 (Ovis aries, UniProt P05979)", "T3 sequence (P05979 25-600)": "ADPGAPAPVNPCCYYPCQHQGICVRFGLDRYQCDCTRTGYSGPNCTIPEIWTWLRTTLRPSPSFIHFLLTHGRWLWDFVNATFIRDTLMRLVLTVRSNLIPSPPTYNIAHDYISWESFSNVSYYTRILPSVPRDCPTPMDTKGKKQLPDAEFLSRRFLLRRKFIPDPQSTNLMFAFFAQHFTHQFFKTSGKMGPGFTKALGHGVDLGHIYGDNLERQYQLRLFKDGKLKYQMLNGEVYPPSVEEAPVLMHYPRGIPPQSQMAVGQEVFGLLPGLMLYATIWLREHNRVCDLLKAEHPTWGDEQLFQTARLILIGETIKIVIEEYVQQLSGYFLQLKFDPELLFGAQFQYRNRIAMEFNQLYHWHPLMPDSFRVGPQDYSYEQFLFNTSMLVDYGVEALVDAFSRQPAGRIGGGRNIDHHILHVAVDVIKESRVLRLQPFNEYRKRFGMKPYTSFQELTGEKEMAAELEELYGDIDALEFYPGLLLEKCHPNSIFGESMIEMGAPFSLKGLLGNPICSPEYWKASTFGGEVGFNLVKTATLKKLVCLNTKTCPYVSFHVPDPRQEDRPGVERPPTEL", "assay": "COX inhibition screening assay", "assay_type": "biochemical, ovine"}, "mV523I (mCOX-2 mutant)": {"molecular_target": "T4, mV523I (mCOX-2 mutant) (Mus musculus, UniProt Q05769, V509I)", "T4 sequence (Q05769 18-604 V509I)": "T2 sequence (Q05769 18-604 R106A) with A89R, V492I", "assay": "COX inhibition screening assay, mCOX-2 V523I mutant", "assay_type": "biochemical"}, "[1]": {"test_system": "carrageenan-induced rat paw edema", "assay": "Carrageenan-induced rat footpad edema model", "assay_type": "in vivo", "conditions": "oral in corn oil 1 h postcarrageenan, footpad volume 2 h later"}, "[2]": {"assay": "Gastrointestinal tolerability observation in rats", "assay_type": "in vivo, rat"}, "mY355F (mCOX-2 mutant)": {"molecular_target": "T5, mY355F (mCOX-2 mutant) (Mus musculus, UniProt Q05769, Y341F)", "T5 sequence (Q05769 18-604 Y341F)": "T2 sequence (Q05769 18-604 R106A) with A89R, Y324F", "assay": "COX inhibition screening assay, mCOX-2 Y355F mutant", "assay_type": "biochemical", "conditions": "inhibitor concentrations of up to 100 μM"}, "[3]": {"conditions": "Sprague–Dawley rats, doses higher than 2 mg/kg; ref previous studies; cited from earlier work"}, "COX-2": {"test_system": "COX-2", "conditions": "also, to some extent, COX-1; cited from earlier work"}},
  "note": "Substitutions are numbered along the chain they refer to.",
  "data": [
    {"smiles": "COc1ccc2c(c1)c(CC(=O)O)c(C(F)(F)F)n2C(=O)c1ccc(Cl)cc1", "note": "[CF3–indomethacin, 2-(1-(4-chlorobenzoyl)-5-methoxy-2′-trifluoromethyl-1H-indol-3-yl)ethanoic acid]", "values": [
      {"measurement": "KI for initial binding to COX-2, fold lower than for indomethacin", "setting": "hCOX-2", "value": "approximately 9 fold"},
      {"measurement": "Ki", "setting": "hCOX-2", "value": "1500 ± 260", "unit": "nM"},
      {"measurement": "k2, fold slower than for indomethacin", "setting": "hCOX-2", "value": 3, "unit": "fold"},
      {"measurement": "k2/KI, fold greater than for indomethacin", "setting": "hCOX-2", "value": "approximately 3 fold"},
      {"measurement": "forward rate constant (k2)", "setting": "hCOX-2; wild-type hCOX-2", "value": "0.020 ± 0.001", "unit": "s^–1"},
      {"measurement": "inhibition of Arg-120 to Ala mutant of COX-2", "setting": "mR120A (mCOX-2 mutant)", "value": "unable to inhibit"},
      {"measurement": "IC50", "setting": "oCOX-1", "value": "> 100000", "unit": "nM"},
      {"measurement": "effect on oCOX-1", "setting": "oCOX-1; up to very high inhibitor concentrations (100 μM)", "value": "no appreciable effect"},
      {"measurement": "IC50", "setting": "mV523I (mCOX-2 mutant)", "value": "> 4000", "unit": "nM"},
      {"measurement": "EC50, anti-inflammatory activity", "setting": "[1]", "value": 1.7, "unit": "mg/kg"},
      {"measurement": "gastrointestinal bleeding", "setting": "[2]; rat, oral, tested up to 10 mg/kg", "value": "no evidence of gastrointestinal bleeding"},
      {"measurement": "overnight observation after testing", "setting": "[2]; treated rats maintained overnight", "value": "no passage of blood from the gastrointestinal tract was observed"},
      {"measurement": "inhibition of Tyr355 to Phe mutant of COX-2", "setting": "mY355F (mCOX-2 mutant)", "value": "unable to inhibit"}
    ]},
    {"smiles": "COc1ccc2c(c1)c(CC(=O)O)c(C)n2C(=O)c1ccc(Cl)cc1", "note": "[indomethacin, 2-(1-(4-chlorobenzoyl)-5-methoxy-2′-methyl-1H-indol-3-yl)ethanoic acid, reference compound]", "values": [
      {"measurement": "gastric toxicity at higher doses", "setting": "[3]", "value": "substantial gastric erosion and bleeding"},
      {"measurement": "EC50, anti-inflammatory activity", "setting": "[1]", "value": 1.0, "unit": "mg/kg"}
    ]},
    {"smiles": "COc1ccc2c(c1)c(CC(=O)O)cn2C(=O)c1ccc(Cl)cc1", "note": "[des-methyl derivative]", "values": [
      {"measurement": "COX-2 inhibition (type)", "setting": "COX-2", "value": "weak, reversible inhibitor"}
    ]}
  ]
}
